# Earlier results in US20120172289A1, “MULTIFUNCTIONAL GLYCOPEPTIDE ANTIBIOTIC DERIVATIVES FOR FLUORESCENT IMAGING AND PHOTOACTIVE ANTIMICROBIAL THERAPY” (NANYANG TECHNOLOGICAL UNIVERSITY, priority 2010, published 2012).
# System: D-Ala-D-Lac
# Conditions: mutation of peptidoglycan sequence in VRE
structure (smiles),measurement,value
CN[C@H](CC(C)C)C(=O)N[C@H]1C(=O)N[C@@H](CC(N)=O)C(=O)N[C@H]2C(=O)N[C@H]3C(=O)N[C@H](C(=O)N[C@H](C(=O)O)c4cc(O)cc(O)c4-c4cc3ccc4O)[C@H](O)c3ccc(c(Cl)c3)Oc3cc2cc(c3O[C@@H]2O[C@H](CO)[C@@H](O)[C@H](O)[C@H]2O[C@H]2C[C@](C)(N)[C@H](O)[C@H](C)O2)Oc2ccc(cc2Cl)[C@H]1O [Vancomycin],"decrease of binding affinity, D-Ala-D-Ala to D-Ala-D-Lac",~10^3 times
